The compounds below were run on HUFEC (assay: Cell Migration Assay (CMA) Test, inhibitory rate with control (-) correction). Details: Homo sapiens, 24 h, 125 μl of 0.32 mM sample solution in 4.0 ml medium, 80% or more = remarkable.
Format: cell-based, human
How it was run: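 Confluent HUFEC monolayers were scratch-wounded, then cultured 24 h at 37 °C, 5% CO2 in M199 (2+) medium with compound added as 125 μl of a 0.32 mM solution (3.2% DMSO) per 4 ml. Giemsa-stained cells migrating into 1 mm×1 mm blocks counted; inhibition % calculated relative to control (+) and control (−) wells.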

First: COC(=O)C1=CO[C@@H](OC(=O)Nc2ccc(Cl)c(Cl)c2)[C@H]2[C@@H]1CC[C@@H]2C [I-255]
Second: COC(=O)C1=CO[C@@H](OC(=O)Nc2ccccc2)[C@H]2[C@@H]1CC[C@@H]2C [I-271]
The inhibition at 320 µM (stock) of the first is lower: 6.5% for the first, 21.6% for the second.

Going from COC(=O)C1=CO[C@@H](OC(=O)NCc2cccnc2)[C@H]2[C@@H]1CC[C@@H]2C [I-178] to COC(=O)C1=CO[C@@H](OC(=O)NCc2nc3ccccc3[nH]2)[C@H]2[C@@H]1CC[C@@H]2C [I-252], the inhibition at 320 µM (stock) rises from 6.3% to 8.2%.

Compared with CNC(=O)O[C@@H]1OC=C(C(=O)Nc2nccs2)[C@H]2C[C@@H]3O[C@]3(C)[C@@H]12 [I-62], CNC(=O)O[C@@H]1OC=C(C(=O)NC)[C@H]2CC=C(C)[C@@H]12 [I-310] is higher in inhibition at 320 µM (stock): 10.6% for the first, 20.7% for the second.

Going from COC(=O)C1=CO[C@@H](OC(=O)NCCS)[C@H]2[C@@H]1CC[C@@H]2C [I-236] to COC(=O)C1=CO[C@@H](OC(=O)NCCN(C)C)[C@H]2[C@@H]1CC[C@@H]2C [I-222], the inhibition at 320 µM (stock) falls from 28.1% to 3.7%.

Compared with C[C@]12O[C@H]1C[C@@H]1C(C(=O)N3CCN(CCO)CC3)=CO[C@@H](OC(=O)NCCCl)[C@@H]12 [I-68], CNC(=O)OCCN1CCN(C(=O)C2=COC[C@@H]3[C@H](C)CC[C@H]23)CC1 [I-306] is lower in inhibition at 320 µM (stock): 65.6% for the first, 25.1% for the second.

Compared with COC(=O)C1=CO[C@@H](OC(=O)Nc2ccccc2F)[C@H]2[C@@H]1CC[C@@H]2C [I-257], COC(=O)C1=CO[C@@H](OC(=O)Nc2ccc(F)cc2F)[C@H]2[C@@H]1CC[C@@H]2C [I-256] is lower in inhibition at 320 µM (stock): 8% for the first, 5% for the second.

COC(=O)C1=CO[C@@H](OC(=O)NCCc2ccccc2F)[C@@H]2C(C)=CC[C@H]12 [I-82] and COC(=O)C1=CO[C@@H](OC(=O)NCCc2ccccn2)[C@@H]2C(C)=CC[C@H]12 [I-79] are the same in inhibition at 320 µM (stock): 13.7% for the first, 13.7% for the second.

Compared with CNC(=O)O[C@@H]1OC=C(C(=O)N2C[C@@H](C)O[C@@H](C)C2)[C@H]2CC=C(C)[C@@H]12 [I-311], C=CCNC(=O)O[C@@H]1OC=C(C(=O)OC)[C@H]2CC=C(C)[C@@H]12 [I-123] is higher in inhibition at 320 µM (stock): 7.6% for the first, 8% for the second.

Compared with COC(=O)C1=CO[C@@H](OC(=O)N2CCC(Cc3ccccc3)CC2)[C@H]2[C@@H]1CC[C@@H]2C [I-199], COC(=O)C1=CO[C@@H](OC(=O)N2CCC(Cc3ccccc3)CC2)[C@@H]2C(C)=CC[C@H]12 [I-94] is lower in inhibition at 320 µM (stock): 25% for the first, 3.9% for the second.

Going from COC(=O)C1=CO[C@@H](OC(=O)NCCSCc2ccccc2)[C@H]2[C@@H]1CC[C@@H]2C [I-253] to COC(=O)C1=CO[C@@H](OC(=O)NCc2ccc(OC(F)(F)F)cc2)[C@H]2[C@@H]1CC[C@@H]2C [I-211], the inhibition at 320 µM (stock) rises from 25.1% to 32.1%.

Compared with COC(=O)C1=CO[C@@H](OC(=O)N2CCN(c3cccc(C(F)(F)F)c3)CC2)[C@H]2[C@@H]1CC[C@@H]2C [I-235], COC(=O)C1=CO[C@@H](OC(=O)Nc2cccc(C(F)(F)F)c2)[C@@H]2C(C)=CC[C@H]12 [I-160] is lower in inhibition at 320 µM (stock): 6.5% for the first, 6.3% for the second.

First: COC(=O)C1=CO[C@@H](OC(=O)N(CCO)CCO)[C@@H]2C(C)=CC[C@H]12 [I-138]
Second: COC(=O)C1=CO[C@@H](OC(=O)NCCc2ccc(O)cc2)[C@@H]2C(C)=CC[C@H]12 [I-100]
The inhibition at 320 µM (stock) of the first is lower: 3.5% for the first, 21.9% for the second.

Compared with COC(=O)C1=CO[C@@H](OC(=O)Nc2ccc(F)cc2)[C@@H]2C(C)=CC[C@H]12 [I-156], COC(=O)CNC(=O)O[C@@H]1OC=C(C(=O)OC)[C@H]2CC[C@H](C)[C@@H]12 [I-246] is higher in inhibition at 320 µM (stock): 5.8% for the first, 23.4% for the second.

Work on COC(=O)C1=COC[C@@H]2C(COC(=O)NCCCl)CC[C@H]12 (stereo partly drawn) [I-297] yielded an inhibition at 320 µM (stock) of 15.2%.

What follows are compounds tested on human umbilical-vein endothelial cells (HUVEC) (assay: Tube Formation Assay (TFA) Test, HUVEC in collagen gel). Details: Homo sapiens, HUVEC, Tables 75-83; 0.32 mM sample solution; method as for Compounds 1 through 60; read-out: TFA Inhibition rate (%).
Format: cell-based
How it was run: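 HUVEC (7th subculture, 1×10^5 cells/ml) attached to collagen gel for 2 h at 37 °C, given sample and overlaid with collagen, then cultured 20 h at 37 °C, 5% CO2 in M-199 with 20% FCS, 30 ng/ml b-FGF and 0.1 μM PMA. Tube length measured by image analysis; % inhibition relative to positive and negative controls.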

First: COC(=O)C1=CO[C@@H](OC(=O)Nc2ccc(Cl)c(Cl)c2)[C@H]2[C@@H]1CC[C@@H]2C [I-255]
Second: COC(=O)C1=CO[C@@H](OC(=O)Nc2ccccc2)[C@H]2[C@@H]1CC[C@@H]2C [I-271]
The inhibition at 320 µM (stock) of the first is lower: 6% for the first, 35.1% for the second.

Compared with COC(=O)C1=CO[C@@H](OC(=O)NCc2cccnc2)[C@H]2[C@@H]1CC[C@@H]2C [I-178], COC(=O)C1=CO[C@@H](OC(=O)NCc2nc3ccccc3[nH]2)[C@H]2[C@@H]1CC[C@@H]2C [I-252] is lower in inhibition at 320 µM (stock): 5.8% for the first, 5.4% for the second.

First: CNC(=O)O[C@@H]1OC=C(C(=O)Nc2nccs2)[C@H]2C[C@@H]3O[C@]3(C)[C@@H]12 [I-62]
Second: CNC(=O)O[C@@H]1OC=C(C(=O)NC)[C@H]2CC=C(C)[C@@H]12 [I-310]
The inhibition at 320 µM (stock) of the first is higher: 28.4% for the first, 20.1% for the second.

Going from COC(=O)C1=CO[C@@H](OC(=O)NCCS)[C@H]2[C@@H]1CC[C@@H]2C [I-236] to COC(=O)C1=CO[C@@H](OC(=O)NCCN(C)C)[C@H]2[C@@H]1CC[C@@H]2C [I-222], the inhibition at 320 µM (stock) rises from 10.4% to 20.8%.

Going from C[C@]12O[C@H]1C[C@@H]1C(C(=O)N3CCN(CCO)CC3)=CO[C@@H](OC(=O)NCCCl)[C@@H]12 [I-68] to CNC(=O)OCCN1CCN(C(=O)C2=COC[C@@H]3[C@H](C)CC[C@H]23)CC1 [I-306], the inhibition at 320 µM (stock) rises from 9.2% to 22.6%.

Going from COC(=O)C1=CO[C@@H](OC(=O)Nc2ccccc2F)[C@H]2[C@@H]1CC[C@@H]2C [I-257] to COC(=O)C1=CO[C@@H](OC(=O)Nc2ccc(F)cc2F)[C@H]2[C@@H]1CC[C@@H]2C [I-256], the inhibition at 320 µM (stock) rises from 3.5% to 4%.

Going from COC(=O)C1=CO[C@@H](OC(=O)NCCc2ccccc2F)[C@@H]2C(C)=CC[C@H]12 [I-82] to COC(=O)C1=CO[C@@H](OC(=O)NCCc2ccccn2)[C@@H]2C(C)=CC[C@H]12 [I-79], the inhibition at 320 µM (stock) falls from 5.5% to 4.7%.

First: CNC(=O)O[C@@H]1OC=C(C(=O)N2C[C@@H](C)O[C@@H](C)C2)[C@H]2CC=C(C)[C@@H]12 [I-311]
Second: C=CCNC(=O)O[C@@H]1OC=C(C(=O)OC)[C@H]2CC=C(C)[C@@H]12 [I-123]
The inhibition at 320 µM (stock) of the first is lower: 10.7% for the first, 14.1% for the second.

First: COC(=O)C1=CO[C@@H](OC(=O)N2CCC(Cc3ccccc3)CC2)[C@H]2[C@@H]1CC[C@@H]2C [I-199]
Second: COC(=O)C1=CO[C@@H](OC(=O)N2CCC(Cc3ccccc3)CC2)[C@@H]2C(C)=CC[C@H]12 [I-94]
The inhibition at 320 µM (stock) of the first is lower: 6% for the first, 6.2% for the second.

Compared with COC(=O)C1=CO[C@@H](OC(=O)NCCSCc2ccccc2)[C@H]2[C@@H]1CC[C@@H]2C [I-253], COC(=O)C1=CO[C@@H](OC(=O)NCc2ccc(OC(F)(F)F)cc2)[C@H]2[C@@H]1CC[C@@H]2C [I-211] is higher in inhibition at 320 µM (stock): 5.7% for the first, 20.4% for the second.

Going from COC(=O)C1=CO[C@@H](OC(=O)N2CCN(c3cccc(C(F)(F)F)c3)CC2)[C@H]2[C@@H]1CC[C@@H]2C [I-235] to COC(=O)C1=CO[C@@H](OC(=O)Nc2cccc(C(F)(F)F)c2)[C@@H]2C(C)=CC[C@H]12 [I-160], the inhibition at 320 µM (stock) rises from 9.3% to 13.8%.

First: COC(=O)C1=CO[C@@H](OC(=O)N(CCO)CCO)[C@@H]2C(C)=CC[C@H]12 [I-138]
Second: COC(=O)C1=CO[C@@H](OC(=O)NCCc2ccc(O)cc2)[C@@H]2C(C)=CC[C@H]12 [I-100]
The inhibition at 320 µM (stock) of the first is lower: 2.5% for the first, 23.3% for the second.

Compared with COC(=O)C1=CO[C@@H](OC(=O)Nc2ccc(F)cc2)[C@@H]2C(C)=CC[C@H]12 [I-156], COC(=O)CNC(=O)O[C@@H]1OC=C(C(=O)OC)[C@H]2CC[C@H](C)[C@@H]12 [I-246] is lower in inhibition at 320 µM (stock): 10.9% for the first, 4.9% for the second.

COC(=O)C1=COC[C@@H]2C(COC(=O)NCCCl)CC[C@H]12 (stereo partly drawn) [I-297] gave an inhibition at 320 µM (stock) of 11.2%.
